Source: the supplement of paper PMC3974653
Counter-ions that a name gives are not always drawn.

Tested on: MTT (mouse pheochromocytoma)
Test: IC50 of cell viability (ATP content)
Details: (24 or 48 h)
Procedure, shortened: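 Library compounds in DMSO (23 nl by pintool, 8 concentrations, final 0.5 nM to 46 µM) were applied for 24 or 48 hrs to MTT mouse pheochromocytoma cells that had been cultured overnight at 37°C, 5% CO2 in white 1536-well plates. Cell viability was measured by CellTiter-Glo ATP luminescence, read after 15 minutes, with positive-control wells set at 100% and DMSO wells at 0%. A four-parameter logistic fit of the normalised signals yielded the IC50.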

SMILES | IC50 of cell viability
Cc1cc(C(=O)NNCc2ccccc2)no1 [Isocarboxazid] | > 46 µM
CN(C)C(=S)SSC(=S)N(C)C [Tetramethylthiuram disulfide] | > 46 µM
Cc1cc(OI)c(C(C)C)cc1-c1cc(C(C)C)c(OI)cc1C [THYMOL IODIDE] | > 46 µM
C#C[C@]1(O)CC[C@H]2[C@@H]3CCC4=C/C(=N\O)CC[C@H]4[C@@H]3CC[C@]21CC [NORELGESTROMIN] | > 46 µM
CC(=O)OC[C@H]1O[C@H]([C@H](OC(C)=O)[C@@H]1OC(C)=O)N2\N=C/C(=O)NC2=O [Azaribine] | > 46 µM
Cc1oncc1C(=O)Nc1ccc(C(F)(F)F)cc1 [Leflunomide] | > 46 µM
OC(C#CCN1CCCC1)(c1ccccc1)c1ccccc1 [Butinolina] | > 46 µM
CC(C)NCC(O)COc1ccccc1-n1cccc1 (configuration not stated) [ISAMOLTANE] | > 46 µM
NC1=NCC2c3ccccc3Cc3ccccc3N12 (configuration not stated) [EPINASTINE HYDROCHLORIDE] | > 46 µM
Nc1ncnc2c1ncn2[C@@H]1O[C@@H]2COP(=O)(O)O[C@H]2[C@H]1O [Adenosine 3',5'-cyclic monophosphate] | > 46 µM
N[S+](=O)([O-])c1cc(-c2nnn[nH]2)c(NCc2cccs2)cc1Cl [AZOSEMIDE] | > 46 µM
CCN(CC)C(=O)N[C@@H]1C[C@@H]2c3cccc4[nH]cc(c34)C[C@H]2N(C)C1 [R(+)-TERGURIDE] | > 46 µM
Cc1nc2c([nH]1)c(=O)n(C)c(=O)n2Cc1ccco1 [FURAFYLLINE] | > 46 µM
CCOC(=O)C(\C#N)=C(/C1=CC=CC=C1)C2=CC=CC=C2 [Etocrylene] | > 46 µM
COC(=O)\C1=C(/C)N\C(=C(/C1C2=CC=CC(=C2)[N+]([O-])=O)C(=O)OCCN(C)CC3=CC=CC=C3)C (configuration not stated) [NICARDIPINE] | > 46 µM
NCCO/C=C/C(N)C(=O)O (configuration not stated) | > 46 µM
C[C@@H]1C[C@@H](OC(=O)[C@@H](O)c2ccccc2)CC(C)(C)N1C [Eucatropine hydrochloride] | > 46 µM
N[C@@H]1CN(CC12CC2)C3=C(F)C=C4C(=O)\C(=C/N([C@@H]5C[C@@H]5F)C4=C3Cl)C(O)=O [Sitafloxacin] | > 46 µM
NNc1nnc(NN)c2ccccc12 [DIHYDRALAZINUM] | > 46 µM
COc1cc2nc(O)nc(O)c2cc1OC [6,7-DIMETHOXYQUINAZOLINE-2,4(1H,3H)-DIONE] | > 46 µM
C#C[C@]1(O)CC[C@H]2[C@@H]3CCC4=CCCC[C@@H]4[C@H]3C(=C)C[C@@]21CC [DESOGESTREL] | > 46 µM
CC(C)(O)c1ccccc1CC[C@H](SCC1(CC(=O)[O-])CC1)c1cccc(/C=C/c2ccc3ccc(Cl)cc3n2)c1 [MONTELUKAST SODIUM] | > 46 µM
CC(=O)CC(c1ccccc1)C1C(=O)Oc2ccccc2C1=O (configuration not stated) [WARFARIN POTASSIUM] | > 46 µM
Cc1c(C)c2c(c(C)c1O)CCC(C)(COc1ccc(CC3SC(=O)NC3=O)cc1)O2 (configuration not stated) [Troglitazone] | > 46 µM

SMILES | IC50 of cell viability
CN1CC\C(CC1)=C2\C3=C(CCC4=CC=CC=C24)SC=C3 [PIZOTIFEN] | > 46 µM
O=C1c2ccccc2C(=O)C1c1ccc(F)cc1 [Fluindiona] | > 46 µM
Cc1ccc(/N=C/N(C)/C=N/c2ccc(C)cc2C)c(C)c1 [AMITRAZ] | > 46 µM
COC(=O)[C@@H]1CC2=CC(=O)CC[C@]2(C)[C@@]23O[C@@H]2C[C@@]2(C)[C@@H](CC[C@@]24CCC(=O)O4)[C@H]13 [Eplerenone] | > 46 µM
[K+].C[C@H](OC1=CC=CC=C1)C(=O)N[C@H]2[C@@H]3SC(C)(C)[C@@H]([N@@]3C2=O)C([O-])=O [Phenethicillin potassium salt] | > 46 µM
[O-]Cl [Sodium hypochlorite] | > 46 µM
CC(C)NCC(O)c1ccc(N)c(C#N)c1 (configuration not stated) [CIMATEROL] | > 46 µM
COc1cc(CC(C)N)c(OC)cc1Br (racemic) [(±)-2,5-Dimethoxy-4-bromoamphetamine hydrobromide] | > 46 µM
COc1ccc2[nH]cc(CCN(C(C)C)C(C)C)c2c1 [5-Methoxy-N,N-diisopropyltryptamine] | > 46 µM
CCCN1CCC[C@@H]2Cc3n[nH]cc3C[C@H]21 [(-)-QUINPIROLE] | > 46 µM
CCN(CC)C(=O)[C@@]1(c2ccccc2)C[C@@H]1CN [MILNACIPRAN] | > 46 µM
CCOC(=O)c1ccccc1O [Ethyl salicylate] | > 46 µM
CC1CNC(=O)CCC2(C)C(CC(N)=O)C3[N+]/4=C2/C(=C\5C(CCC(N)=O)C(C)(C)C\6=[N+]5[Co-3]47(CC8OC(C(O)C8O)[N]9C=NC%10=C(N)N=CN=C9%10)(N%11/C(=C(C)\C%12=[N+]7\C(=C6)C(CCC(N)=O)C%12(C)CC(N)=O)C(CCC(N)=O)C(C)(CC(N)=O)C3%11C)[N+]%13=C[N](C%14O[C@H](CO)[C@@H](O[P]([O-])(=O)O1)C%14O)C%15=C%13C=C(C)C(=C%15)C)C (some centres not stated) [COENZYME B12] | > 46 µM
C=C1/C(=C\C=C2/CCC[C@]3(C)[C@@H]([C@H](C)CCCC(C)(C)O)CC[C@@H]23)C[C@@H](O)C[C@@H]1O [CALCITRIOL] | > 46 µM
CCCCCCCCCC(CC)c1ccc(S(=O)(=O)[O-])cc1.[Na+] (configuration not stated) [Dodecylbenzenesulfonic acid, sodium salt] | > 46 µM
[Cl][In]([Cl])[Cl] [Indium trichloride] | > 46 µM
Nc1nc(/C(=C/CC(=O)O)C(=O)NC2C(=O)N3C(C(=O)O)=CCSC23)cs1 (configuration not stated) [CEFTIBUTEN] | > 46 µM
O=[N+]([O-])c1ccc(Oc2ccc(N=C=S)cc2)cc1 [Nitroscanate] | > 46 µM
CN(C(=O)CO)c1c(I)c(C(=O)NCC(O)CO)c(I)c(C(=O)NCC(O)CO)c1I (configuration not stated) [Iomeprol] | > 46 µM
CCN(CC)C(=O)c1ccc(O)c(OC)c1 [Vanillic acid diethylamide] | > 46 µM
COc1cccc(CCc2ccccc2OCC(CN(C)C)OC(=O)CCC(=O)O)c1 (configuration not stated) [SARPOGRELATE HYDROCHLORIDE] | > 46 µM
CN(C)CCc1c[nH]c2ccc(Cn3cncn3)cc12 [RIZATRIPTAN] | > 46 µM
COc1ccc2[nH]c([S+]([O-])Cc3ncc(C)c(OC)c3C)nc2c1 (configuration not stated) [Omeprazole] | > 46 µM
[Cl][Pt][Cl] [cis-Diamineplatinum(II) dichloride] | > 46 µM

SMILES | IC50 of cell viability
CC(C)CCCC(C)C1CC(=O)C2=C3CCC4CC(O)CCC4(C)C3CCC21C (configuration not stated) [Colestolone] | > 46 µM
c1csc(C2(N3CCCCC3)CCCCC2)c1 [TENOCYCLIDINUM] | > 46 µM
OCC(O)CO [GLYCERIN] | > 46 µM
Nc1ccc([N+](=O)[O-])cc1 [4-Nitroaniline] | > 46 µM
Cl.NCC(=O)CCC(=O)O [AMINOLEVULINIC ACID HYDROCHLORIDE] | > 46 µM
O=[S+]([O-])(c1cccc2cnccc12)N1CCCNCC1 [Fasudil hydrochloride] | > 46 µM
CC(CCc1ccccc1)NC(C)C(O)c1ccc(O)cc1 (configuration not stated) [NYLIDRIN] | > 46 µM
C[C@]12CCC3C(CCC4=C(Cl)C(=O)CC[C@@]43C)C1CCC2O (some centres not stated) [Clostebol] | > 46 µM
CC(C)(N)Cc1ccc(Cl)cc1 [Chlorphentermine hydrochloride] | > 46 µM
CC(=O)CC(C1=CC=CC=C1)C/2=C(O)/C3=CC=CC=C3OC2=O (configuration not stated) [WARFARIN] | > 46 µM
C=CC(=O)O [CARBOMER 940] | > 46 µM
C[C@H](N)[C@H](O)c1cccc(O)c1.O=C(O)[C@@H](O)[C@@H](O)C(=O)O.O=C(O)[C@@H](O)[C@@H](O)C(=O)O [Metaraminol bitartrate] | > 46 µM
CCCC[C@H](CC)CN1CN(C[C@@H](CC)CCCC)CC(C)(N)C1 [Hexetidine] | > 46 µM
C[S+]([O-])(=O)C1=CC=C(C=C1)C/2=C(/C(=O)OC2)C3=CC=CC=C3 [ROFECOXIB] | > 46 µM
CN[C@H](C)Cc1ccccc1 [S-(+)-Methamphetamine] | > 46 µM
CCCCc1oc2ccccc2c1C(=O)c1cc(I)c(OCCN(CC)CC)c(I)c1 [Amiodarone hydrochloride] | > 46 µM
CCC(=O)O[C@@H]1[C@H](C)O[C@@H](O[C@H]2[C@@H](N(C)C)[C@@H](O)[C@H](O[C@H]3[C@H](CC=O)C[C@@H](C)[C@@H](O)/C=C\C=C/C[C@@H](C)OC(=O)C[C@@H](OC(=O)CC)[C@H]3OC)O[C@H]2C)C[C@]1(C)O [Midecamycin] | > 46 µM
NC(=O)C1(N2CCCCC2)CCN(CCCC(=O)c2ccc(F)cc2)CC1 [PIPAMPERONE HYDROCHLORIDE] | > 46 µM
COP(=S)(OC)SCN1C(=O)c2ccccc2C1=O [Phosmet] | > 46 µM
Cc1ccccc1C(=O)N1CC/C(=N/OS(=O)(=O)[O-])c2ccc(Cl)cc21 [ALILUSEM POTASSIUM] | > 46 µM
C#C[C@]1(OC(C)=O)CC[C@H]2[C@@H]3CCC4=C[C@@H](OC(C)=O)CC[C@@H]4[C@H]3CC[C@@]21C [ETHYNODIOL DIACETATE] | > 46 µM
Cc1ncc(COP(=O)(O)O)c(CN)c1O [PYRIDOXAMINE PHOSPHATE] | > 46 µM
Cc1cccn2c(=O)c(-c3nnn[n-]3)cnc12 [PEMIROLAST POTASSIUM] | > 46 µM
COc1cccc(C(=O)CCN[C@@H](C)[C@H](O)c2ccccc2)c1 [Oxyphedrine] | > 46 µM
